Laboratory results from patent US20250276073A1, “BICYCLIC PEPTIDE LIGANDS SPECIFIC FOR TRANSFERRIN RECEPTOR 1 (TfR1)” (BicycleTx Limited, priority 2022, published 2025).
Starred links: 1 amine or outer side, 2 acyl side, 3 side chain; linkers in the order of their positions; H or OH if unused. Positions of bridges follow the written chain, without caps; N, C: chain ends. Non-standard residues stand in square brackets, D forms with d. Residues, ends and D or L forms follow the SMILES beside them. TATB = O=C(C[*:1])N1CN(C(=O)C[*:2])CN(C(=O)C[*:3])C1; Hyp = O=C(O)[C@@H]1C[C@@H](O)CN1; Tle = CC(C)(C)[C@H](N)C(=O)O

The molecules below were run against Human TfR1 (Homo sapiens, UniProt P02786) (assay: biochemical).
Human TfR1, sequence (P02786 89-760): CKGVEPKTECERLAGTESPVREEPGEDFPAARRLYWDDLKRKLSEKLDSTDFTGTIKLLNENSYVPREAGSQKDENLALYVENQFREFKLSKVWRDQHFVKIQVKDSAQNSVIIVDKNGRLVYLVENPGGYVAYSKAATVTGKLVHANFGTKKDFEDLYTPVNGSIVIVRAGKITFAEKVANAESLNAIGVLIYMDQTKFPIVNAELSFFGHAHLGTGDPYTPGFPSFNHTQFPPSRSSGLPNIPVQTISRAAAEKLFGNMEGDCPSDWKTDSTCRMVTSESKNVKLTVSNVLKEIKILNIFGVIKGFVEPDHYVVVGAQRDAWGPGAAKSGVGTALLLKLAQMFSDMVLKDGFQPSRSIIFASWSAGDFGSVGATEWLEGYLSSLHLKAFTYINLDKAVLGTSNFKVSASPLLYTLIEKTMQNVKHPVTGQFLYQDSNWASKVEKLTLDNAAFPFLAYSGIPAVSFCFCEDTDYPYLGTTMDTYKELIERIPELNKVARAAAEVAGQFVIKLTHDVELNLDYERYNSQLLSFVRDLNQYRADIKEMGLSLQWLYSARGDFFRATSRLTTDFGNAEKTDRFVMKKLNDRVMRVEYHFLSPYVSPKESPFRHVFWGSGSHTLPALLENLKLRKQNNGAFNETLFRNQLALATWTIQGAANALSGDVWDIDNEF
Protocol: Recombinant human and cynomolgus TfR1 were received from Bicycle as Hiss-tagged TfR1 (a.a. 89-760) (ACRO Biosystems, CD1-H5243 and TFR-C524a).
For analysis of TfR1 peptide binding, a Biacore T200 or S200 instrument was used utilising a capture/coupling approach with a Cytiva NTA chip at 25° C. with 25 mM HEPES, 0.1M NaCl, 0.05% Tween 20 pH 7.4 as the running buffer. Immobilisation was carried out as follows. The chip was pre-equilibrated with an injection of 500 mM EDTA (pH 8), before activation with 5 mM NiSO4. The surface was then activated using standard amine-coupling chemistry. Briefly, the carboxymethyl dextran surface was activated with a 1:1 ratio of 0.4 M 1-ethyl-3-(3-dimethylaminopropyl) carbodiimide hydrochloride (EDC)/0.1 M N-hydroxy succinimide (NHS). The TfR1 protein (human or cynomolgus) was then captured onto the activated surface after dilution into running buffer to 200 nM and 250 nM respectively. Residual activated groups were blocked with a 7 min injection of 1 M ethanolamine (pH 8.5):HBS-N(1:1). Reference surfaces were activated and blocked as above with no TfR1 protein capture. Capture levels were in the range of 1,500-5,000 RU dependent upon the individual study Buffer was changed to 25 mM HEPES, 0.1M NaCl, 0.05% Tween 20 pH 7.4 1% DMSO.
A dilution series of test peptides was prepared in this buffer with a top peptide concentration of 5 μM and 6 further 2-fold dilutions. The SPR analysis was run at 25° C. at a flow rate of 30 μl/min with 160 seconds association and 700-800 seconds dissociation. Data were corrected for DMSO excluded volume effects. All data were double-referenced for blank injections and reference surface using standard processing procedures and data processing and kinetic fitting were performed using Scrubber software, version 2.0c (BioLogic Software). Data were fitted using simple 1:1 binding model allowing for mass transport effects where appropriate.

SMILES | Kd [nM]
CC(=O)N[C@H]1CSCC(=O)N2CN3CN(C2)C(=O)CSC[C@@H](C(=O)N[C@@H](CCC(=O)O)C(=O)N2CCC[C@H]2C(=O)N[C@@H](Cc2c[nH]c4ccccc24)C(N)=O)NC(=O)[C@H](Cc2ccc(O)cc2)NC(=O)[C@H](CO)NC(=O)[C@H](C(C)(C)C)NC(=O)[C@H](CSCC3=O)NC(=O)CNC(=O)[C@H](CC(C)C)NC(=O)[C@H](Cc2ccc(O)cc2)NC(=O)[C@H](C)NC(=O)[C@H](CC(=O)O)NC(=O)[C@@H]2C[C@@H](O)CN2C(=O)[C@@H]2C[C@@H](O)CN2C1=O [BCY23180, C[HyP][HyP]DAYLGC[tBuGly]SYCEPW] | 50
CC(=O)N[C@H]1CSCC(=O)N2CN3CN(C2)C(=O)CSC[C@@H](C(=O)N[C@@H](CCC(=O)O)C(=O)N2CCC[C@H]2C(=O)N[C@@H](Cc2c[nH]c4ccccc24)C(N)=O)NC(=O)[C@H](Cc2ccc(O)cc2)NC(=O)[C@H](CO)NC(=O)[C@H](C(C)(C)C)NC(=O)[C@H](CSCC3=O)NC(=O)CNC(=O)[C@H](CCC(N)=O)NC(=O)[C@H](Cc2ccc(O)cc2)NC(=O)[C@H](C)NC(=O)[C@H](CC(=O)O)NC(=O)[C@@H]2C[C@@H](O)CN2C(=O)[C@@H]2CCCN2C1=O [BCY23223, CP[HyP]DAYQGC[tBuGly]SYCEPW] (Ac-CP[Hyp]DAYQGC[Tle]SYCEPW-NH2; linker 1-9-13 via TATB) | 50
CC(=O)N[C@H]1CSCC(=O)N2CN3CN(C2)C(=O)CSC[C@@H](C(=O)N[C@@H](CCC(=O)O)C(=O)N2CCC[C@H]2C(=O)N[C@@H](Cc2ccc(O)cc2)C(N)=O)NC(=O)[C@H](Cc2ccc(O)cc2)NC(=O)[C@H](CO)NC(=O)[C@H](C(C)(C)C)NC(=O)[C@H](CSCC3=O)NC(=O)CNC(=O)[C@H](CC(C)C)NC(=O)[C@H](Cc2ccc(O)cc2)NC(=O)[C@H](C)NC(=O)[C@H](CC(=O)O)NC(=O)[C@@H]2C[C@@H](O)CN2C(=O)[C@@H]2CCCN2C1=O [BCY23207, CP[HyP]DAYLGC[tBuGly]SYCEPY] | 7.7
CC(=O)N[C@H]1CSCC(=O)N2CN3CN(C2)C(=O)CSC[C@@H](C(=O)N[C@@H](CCC(=O)O)C(=O)N2CCC[C@H]2C(=O)N[C@@H](CCc2ccc(O)cc2)C(N)=O)NC(=O)[C@H](Cc2ccc(O)cc2)NC(=O)[C@H](CO)NC(=O)[C@H](C(C)(C)C)NC(=O)[C@H](CSCC3=O)NC(=O)CNC(=O)[C@H](CC(C)C)NC(=O)[C@H](Cc2ccc(O)cc2)NC(=O)[C@H](C)NC(=O)[C@H](CC(=O)O)NC(=O)[C@@H]2C[C@@H](O)CN2C(=O)[C@@H]2CCCN2C1=O [BCY23211, CP[HyP]DAYLGC[tBuGly]SYCEP[hTyr]] | 7.7
